Assay: Absorption maximum (λmax) and log ε of the dye in solution
Assay type: physicochemical
Details: CHCl3

Structure (SMILES)	log ε max.	λ max.
Nc1ccc(-c2cc(-c3ccccc3)cc(-c3ccccc3)[s+]2)cc1 [Example 2]	4.34	592
CNc1ccc(-c2cc(-c3ccccc3)cc(-c3ccccc3)[s+]2)cc1 [Example 4]	4.55	633
CN(C)c1ccc(-c2cc(-c3ccccc3)cc(-c3ccccc3)[s+]2)cc1 [Example 5]	4.77	624
CN(C)c1ccc(-c2cc(-c3ccccc3)cc(-c3ccccc3)[s+]2)cc1 [Example 6]	4.86	622
CCN(CC)c1ccc(-c2cc(-c3ccccc3)cc(-c3ccccc3)[s+]2)cc1 [Example 7]	4.50	638
CCN(Cc1ccccc1)c1ccc(-c2cc(-c3ccccc3)cc(-c3ccccc3)[s+]2)cc1 [Example 8]	4.53	620
CCN(Cc1ccccc1)c1ccc(-c2cc(-c3ccccc3)cc(-c3ccccc3)[s+]2)cc1 [Example 9]	5.18	615
CCN(Cc1ccccc1)c1ccc(-c2cc(-c3ccccc3)cc(-c3ccccc3)[s+]2)cc1 [Example 10]	5.05	620
c1ccc(CN(Cc2ccccc2)c2ccc(-c3cc(-c4ccccc4)cc(-c4ccccc4)[s+]3)cc2)cc1 [Example 11]	4.50	602
Cc1cc(-c2cc(-c3ccccc3)cc(-c3ccccc3)[s+]2)ccc1N [Example 12]	4.32	600
Cc1cc(N)ccc1-c1cc(-c2ccccc2)cc(-c2ccccc2)[s+]1 [Example 14]	4.30	564
Cc1cc(N(C)C)ccc1-c1cc(-c2ccccc2)cc(-c2ccccc2)[s+]1 [Example 16]	–	616
Cc1cc(-c2cc(-c3ccccc3)cc(-c3ccccc3)[s+]2)cc(C)c1N [Example 17]	4.32	600
CCc1cc(-c2cc(-c3ccccc3)cc(-c3ccccc3)[s+]2)cc(CC)c1N [Example 18]	4.32	602
c1ccc(-c2cc(-c3ccccc3)[s+]c(-c3ccc(NC4CCCCC4)cc3)c2)cc1 [Example 19]	4.31	634
c1ccc(Nc2ccc(-c3cc(-c4ccccc4)cc(-c4ccccc4)[s+]3)cc2)cc1 [Example 20]	4.39	650

The remaining lines, values ahead:

log ε max.	λ max.	Structure (SMILES)
4.32	612	COc1cc(-c2cc(-c3ccccc3)cc(-c3ccccc3)[s+]2)ccc1N [Example 21]
4.27	586	COc1cc(N)ccc1-c1cc(-c2ccccc2)cc(-c2ccccc2)[s+]1 [Example 23]
4.36	602	COc1cc(-c2cc(-c3ccccc3)cc(-c3ccccc3)[s+]2)c(OC)cc1N [Example 25]
4.31	638	OCCN(CCO)c1ccc(-c2cc(-c3ccccc3)cc(-c3ccccc3)[s+]2)cc1 [Example 26]
4.00	564	Nc1ccc(-c2cc(-c3ccccc3)cc(-c3ccccc3)[s+]2)c(Cl)c1 [Example 27]
–	654	Nc1ccc(-c2cc(-c3ccccc3)cc(-c3ccccc3)[s+]2)cc1N [Example 29]
–	675 nm	c1ccc(-c2cc(-c3ccccc3)[s+]c(-c3cc4c5c(c3)CCCN5CCC4)c2)cc1 [Example 31, 2,4-diphenyl-6(julolidin-6-yl) thiopyrylium trifluoromethane sulfonate]

Same assay, conditions: EtOH

Structure (SMILES)	log ε max.	λ max.
Nc1ccc(-c2cc(-c3ccccc3)cc(-c3ccccc3)[s+]2)cc1 [Example 1, 2-(4-aminophenyl)-4,6-diphenylthiopyrylium perchlorate]	4.21	584
CNc1ccc(-c2cc(-c3ccccc3)cc(-c3ccccc3)[s+]2)cc1 [Example 3]	4.38	596
Cc1cc(-c2cc(-c3ccccc3)cc(-c3ccccc3)[s+]2)ccc1N [Example 13]	4.32	596
Cc1cc(N)ccc1-c1cc(-c2ccccc2)cc(-c2ccccc2)[s+]1 [Example 15]	4.16	556

The next lines start with the values.

log ε max.	λ max.	Structure (SMILES)
4.19	588	COc1cc(-c2cc(-c3ccccc3)cc(-c3ccccc3)[s+]2)ccc1N [Example 22]
4.16	566	COc1cc(N)ccc1-c1cc(-c2ccccc2)cc(-c2ccccc2)[s+]1 [Example 24]
4.06	588	Nc1ccc(-c2cc(-c3ccccc3)cc(-c3ccccc3)[s+]2)c(Cl)c1 [Example 28]

Same assay, conditions: Example 1, first band (584); solvent not given

logε	Structure (SMILES)
4.21	Nc1ccc(-c2cc(-c3ccccc3)cc(-c3ccccc3)[s+]2)cc1 [Example 1, 2-(4-aminophenyl)-4,6-diphenylthiopyrylium perchlorate]

Same assay, conditions: Example 1, first band; solvent not given

λ max.	Structure (SMILES)
584	Nc1ccc(-c2cc(-c3ccccc3)cc(-c3ccccc3)[s+]2)cc1 [Example 1, 2-(4-aminophenyl)-4,6-diphenylthiopyrylium perchlorate]

Same assay, conditions: Example 1, second band (367); solvent not given

logε	Structure (SMILES)
4.27	Nc1ccc(-c2cc(-c3ccccc3)cc(-c3ccccc3)[s+]2)cc1 [Example 1, 2-(4-aminophenyl)-4,6-diphenylthiopyrylium perchlorate]

Same assay, conditions: Example 1, second band; solvent not given

λ max.	Structure (SMILES)
367	Nc1ccc(-c2cc(-c3ccccc3)cc(-c3ccccc3)[s+]2)cc1 [Example 1, 2-(4-aminophenyl)-4,6-diphenylthiopyrylium perchlorate]
